According to ChEMBL document CHEMBL3430912, “GSK Tres Cantos Anti-Kinetoplastid Screening (TCAKS) Data”:

What was measured:
[1] = tested on: Leishmania donovani; experiment: GSK_TCAKS: pIC50 Leishmania donovani Imaging: THP-1 Host Macrophages. Assay plates (384-well) were prepared by adding 250nL of compound to each well. For single shot assay, the final compound concentration was 5 uM. […] Automated image analysis was performed with a script developed on Acapella High Content Imaging and Analysis Software (PerkinElmer). Output: THP-1 cell count were reported for each well.; format: functional, organism-based, Homo sapiens
[2] = tested on: Trypanosoma cruzi; experiment: GSK_TCAKS: pIC50 Trypanosoma cruzi Imaging: Amastigotes/Cell. […] Cells were then washed once with PBS before infection. T. cruzi trypomastigotes, collected at days 5 to 8 after infection from LLC-MK2 parasite infected cultures, were allowed to swim out for 4h at 37C from a centrifuged pellet (2,500 rpm/10 min/room temperature). Trypomastigotes were then collected and counted in a CASY Cell Counter. Trypomastigotes, in supplemented DMEM, were added to H9c2 cultures in a multiplicity of infection of 1 and incubated for 18 h. Cells were washed once with PBS before incubation of the infected H9c2 monolayer with trypsin (Life-Technologies) to detach cells from the flask. Cells were counted in a CASY Cell Counter using a 150 um capillary and their density set at 5 * 10^4 cells per mL in supplemented assay DMEM. Infected H9c2 were dispensed into 384-well poly-lysine coated assay plates at 50uL per well using a Multidrop Combi dispenser. After seeding them, the plates were incubated at 37C, 5% CO2 for 72h. Cultures were then fixed and stained by addition of 50 uL of a solution containing 8% formaldehyde and 4 uM DRAQ5 DNA dye (BioStatus, UK) per well. […] Five images were collected per well for reliable statistical analysis. Automated image analysis was performed with a script developed on Acapella High Content Imaging and Analysis Software (PerkinElmer). Output: number of amastigotes per cell as infection level measurement.; format: functional, organism-based, Rattus norvegicus; conditions: H9c2, 4 h
[3] = tested on: Trypanosoma cruzi; experiment: GSK_TCAKS: pIC50 Trypanosoma cruzi viability assay using beta-GAL activity. This assay was run at single shot at 5uM compound concentration per well. The biological reagents consisted of NIH-3T3 host cells and trypomastigotes parasitic cells; both cell types were set to a 3.3 * 10^5 cells/mL dilution in assay DMEM by means of a CASY cell counter device using a 60um capillary. 6 uL of the mixture were dispensed per well (about 1 * 10^3 host-cells and 1 * 10^3 parasites) with a Multidrop Combi dispenser. […] In all wells, the percentage of DMSO never exceeded 0.5%. Plates incubated for four days at 37C, 5% CO2. The substrate used for the assay fluorescence intensity (FLINT) readout was resorufin-beta-D-galactopiranoside (Sigma-Aldrich) at 5uM per well. It was diluted in PBS supplemented with the soft detergent Igepal (Fluka).; format: functional, organism-based, Mus musculus; conditions: Tulahuen, NIH3T3
[4] = tested on: Leishmania donovani; experiment: GSK_TCAKS: pIC50 Leishmania donovani Imaging: Infected Macrophages. Assay plates (384-well) were prepared by adding 250nL of compound to each well. For single shot assay, the final compound concentration was 5 uM. […] Automated image analysis was performed with a script developed on Acapella High Content Imaging and Analysis Software (PerkinElmer). Output: Percent of infected macrophage cells were reported for each well.; format: functional, organism-based, Homo sapiens; conditions: THP-1
[5] = tested on: Leishmania donovani; experiment: GSK_TCAKS: pIC50 Leishmania donovani viability assay using fluorescence intensity. Assay plates (1536-well) were prepared by adding 30nL per well of compound. For single shot assay, the final compound concentration was 5uM. […] Briefly, eGFP LdBOB axenic amastigotes were harvested, fixed and counted in a CASY cell counter (Roche-Applied Science). A final concentration of 1.5 * 10^5 cells per well were prepared in amastigote media containing 500 U/mL penicillin/streptomycin (Invitrogen) and 6uL was dispensed to each experimental well using a Multidrop Combi dispenser (Thermo Scientific). 6uL of assay media was dispensed to control columns used as reference for 100% compound response. Following incubation for 72 h at 37C, 5% CO2, 2 uL of resazurin was added to each well at a final concentration of 0.5 mM in phosphate buffered saline (PBS) with IGEPAL (Sigma-Aldrich), 0.05% (v/v).; format: functional, organism-based
[6] = tested on: Trypanosoma cruzi; experiment: (§1) GSK_TCAKS: pIC50 Trypanosoma cruzi Imaging: Infected Cells. […] Cells were then washed once with PBS before infection. T. cruzi trypomastigotes, collected at days 5 to 8 after infection from LLC-MK2 parasite infected cultures, were allowed to swim out for 4h at 37C from a centrifuged pellet (2,500 rpm/10 min/room temperature). Trypomastigotes were then collected and counted in a CASY Cell Counter. Trypomastigotes, in supplemented DMEM, were added to H9c2 cultures in a multiplicity of infection of 1 and incubated for 18 h. Cells were washed once with PBS before incubation of the infected H9c2 monolayer with trypsin (Life-Technologies) to detach cells from the flask. Cells were counted in a CASY Cell Counter using a 150 um capillary and their density set at 5 * 10^4 cells per mL in supplemented assay DMEM. Infected H9c2 were dispensed into 384-well poly-lysine coated assay plates at 50uL per well using a Multidrop Combi dispenser. After seeding them, the plates were incubated at 37C, 5% CO2 for 72h. Cultures were then fixed and stained by addition of 50 uL of a solution containing 8% formaldehyde and 4 uM DRAQ5 DNA dye (BioStatus, UK) per well. […] Five images were collected per well for reliable statistical analysis. Automated image analysis was performed with a script developed on Acapella High Content Imaging and Analysis Software (PerkinElmer). Output: percentage of infected cells per well as a second infection marker.; format: functional, organism-based, Rattus norvegicus; conditions: H9c2, 4 h
[7] = tested on: Trypanosoma cruzi; experiment: as §1, with “H2C9” for “Trypanosoma cruzi”, “H9c2 Host Cardiomyocytes.” for “Infected Cells.”, “Number” for “percentage”, “H9c2 Host Cardiomyocytes nuclei to determine drug-related cytotoxicity.” for “infected cells per well as a second infection marker.”; format: functional, organism-based, Rattus norvegicus; conditions: H9c2, 4 h
[8] = tested on: Leishmania donovani; experiment: GSK_TCAKS: pIC50 Leishmania donovani Imaging: Amastigotes/Macrophages. Assay plates (384-well) were prepared by adding 250nL of compound to each well. For single shot assay, the final compound concentration was 5 uM. […] Automated image analysis was performed with a script developed on Acapella High Content Imaging and Analysis Software (PerkinElmer). Output: Average number of amastigotes per macrophage cell were reported for each well.; format: functional, organism-based, Homo sapiens; conditions: THP-1
[9] = tested on: NIH3T3; experiment: GSK_TCAKS: pIC50 NIH 3T3 cell line viability assay using luminiscence. Tissue culture surface treated assay plates (1536-well) were used. […] The 100% cells survival control was determined exposing the host-cells to a 0.5% DMSO concentration, whereas the 100% toxicity control was achieved by seeding the cells in presence of Amphotericin B at 50uM. Plates were incubated for four days at 37C, 5% CO2. The assay readout was developed by addition of 5uL of CellTiter-Glo Reagent following the manufacturer's instructions. Luminiscence was measured using a ViewLux.; format: functional, cell-based; conditions: Mus musculus, NIH3T3, 96 h
[10] = GSK_TCAKS: pIC50 HepG2 human cell line viability assay using luminiscence. […] Seeding density was checked to ensure that new mono-layers were not more than 50% confluent at the time of harvesting. Cell suspension was added to 500 mL of the same medium at a final density of 1.2 * 10^5 cells/mL. This cell suspension was dispensed (25 uL, 3000 cells per well) into 384-well clear-bottom plates using a Multidrop Combi dispenser. Prior to addition of the cell suspension, the screening compounds (250 nL) were pre-dispensed into the plates with an Echo liquid handler. Plates were incubated for 48 h at 37C, 5% CO2. After incubation, plates equilibrated at room temperature for 30 min before proceeding to develop the luminescent signal. The signal developer, CellTiter-Glo Reagent, was allowed to equilibrate at room temperature for 30 min and added to the plates (25uL per well) using a Multidrop Combi dispenser. Plates were left for 10 min at room temperature for stabilization and then read using a ViewLux.; format: toxicity, cell-based
[11] = tested on: Trypanosoma brucei brucei; experiment: GSK_TCAKS: pIC50 Trypanosoma brucei viability assay using fluorescence intensity. Assay plates (1536-well) were prepared by dispensing 25nL of compound solution per well using an Echo acoustic dispenser (Labcyte).; format: functional, organism-based; conditions: Lister 427, 2 h
[12] = tested on: Trypanosoma brucei brucei; experiment: GSK_TCAKS: pIC50 Trypanosoma brucei viability assay using luminiscence. Assay plates (1536-well) were prepared. T. brucei cultures were harvested and counted in a CASY cell counter. A parasite suspension was prepared at a final concentration of 5 * 10^4 cells/mL in complete HMI9 medium and 6uL was dispensed to all wells containing compounds using a Multidrop Combi dispenser. 6uL of HMI9 media with 0.4% DMSO were dispensed to control columns. Plates were incubated for 24 h at 37C, 5% CO2 then tempered for 10 min at room temperature. ATP content was quantified by adding 4 uL of CellTiter-Glo Reagent (Promega) according to the manufacturer's instructions. Luminescence was measured using a ViewLux.; format: functional, organism-based; conditions: Lister 427, CASY
[13] = molecular target: Sterol 14-alpha demethylase (Trypanosoma cruzi (strain CL Brener), UniProt Q7Z1V1); experiment: GSK_TCAKS: pIC50 CYP51 from Trypanosoma cruzi.; format: functional
Chain of Sterol 14-alpha demethylase (Q7Z1V1 whole entry): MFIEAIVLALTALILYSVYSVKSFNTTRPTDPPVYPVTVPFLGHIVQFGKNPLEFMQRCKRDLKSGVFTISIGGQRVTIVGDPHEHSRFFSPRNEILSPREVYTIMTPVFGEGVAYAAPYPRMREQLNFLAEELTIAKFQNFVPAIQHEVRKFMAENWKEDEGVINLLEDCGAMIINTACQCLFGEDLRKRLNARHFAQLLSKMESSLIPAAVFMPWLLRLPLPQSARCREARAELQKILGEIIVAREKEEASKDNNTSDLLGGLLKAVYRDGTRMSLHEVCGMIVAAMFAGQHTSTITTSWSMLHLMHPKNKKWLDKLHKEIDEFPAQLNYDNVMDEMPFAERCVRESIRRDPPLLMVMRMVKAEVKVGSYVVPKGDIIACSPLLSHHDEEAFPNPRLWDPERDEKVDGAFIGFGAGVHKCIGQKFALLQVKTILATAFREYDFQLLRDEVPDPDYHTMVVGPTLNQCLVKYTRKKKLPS

| SMILES | IC50 [1] [µM] | IC50 [2] [µM] | IC50 [3] [µM] | IC50 [4] [µM] | IC50 [5] [µM] | IC50 [6] [µM] | IC50 [7] [µM] | IC50 [8] [µM] | IC50 [9] [µM] | IC50 at 48 h [10] [µM] | IC50 [11] [µM] | IC50 [12] [µM] | IC50 [13] [µM] |
| --- | --- | --- | --- | --- | --- | --- | --- | --- | --- | --- | --- | --- | --- |
| CN(C)c1ccc(-c2cc3nccnc3c(OC[C@H]3CCCNC3)n2)cn1 | 20 | 1.58 | 1.58 | 20 | > 50.1 | > 50.1 | 20 | 25.1 | 15.8 | 63.1 | 2 |  |  |
| CC(=O)Nc1ccc(Nc2nccc(-c3cnn4ncccc34)n2)cc1C(F)(F)F | 0.01 | 0.2 | 0.0501 | 0.0251 | 0.2 | 0.501 | 0.0631 | 0.0158 |  | > 100 | 0.0316 | 0.0501 | 31.6 |
| O=C1OCc2ccc(Nc3nccc(-c4cnn5ncccc45)n3)cc21 | 0.00794 | 0.0316 | 0.0251 | 0.0158 | 0.0631 | 0.0631 | 0.0251 | 0.0126 |  | > 100 | 0.00398 | 0.02 | > 100 |
| Fc1ccc(Nc2nc(-c3ccccn3)cs2)cc1 | > 50.1 | 5.01 | 2.51 | 10 | 20 | 5.01 | 1 | 6.31 |  | > 100 | 25.1 | 25.1 | 15.8 |
| O=c1nc(NCCCNCc2cc(Br)cc(Br)c2)[nH]c2ccsc12 | 15.8 | 0.398 | 0.631 | 5.01 | 15.8 | 0.631 | 25.1 | 2.51 |  | 50.1 | 0.1 | 0.1 | 31.6 |
| O=c1cc(NCCCNCc2c[nH]c3ccc(Br)cc23)[nH]c2ccccc12 | > 50.1 | 31.6 | > 50.1 | > 50.1 | > 50.1 | > 50.1 | > 50.1 | > 50.1 |  | > 100 | 1 | 0.794 | > 100 |
| Cc1cc(Br)sc1CNCCCNc1cc(=O)c2ccccc2[nH]1 | 20 | 0.501 | 1.58 | 25.1 | > 50.1 | 0.794 | 25.1 | 20 |  | 39.8 | 0.0631 | 0.1 | 63.1 |
| O=C(NCC1CCCCN1C(=O)c1cccc2ccccc12)c1ccccc1 (stereo unspecified) | > 50.1 | 3.16 | 6.31 | > 50.1 | > 50.1 | 5.01 | > 50.1 | > 50.1 |  | > 100 | 0.398 | 0.398 | > 100 |
| O=c1cc(NCCCNCc2cc(C(F)(F)F)cs2)[nH]c2ccccc12 | 20 | 5.01 | 7.94 | 39.8 | > 50.1 | > 50.1 | 31.6 | 25.1 |  | 63.1 | 0.316 | 0.398 | 25.1 |
| COc1ccc2nccc(NC(=O)C3(OC)CCN(CC(O)c4ccc5c(c4)OCCO5)CC3)c2n1 (stereo unspecified) | 25.1 | 0.126 | 0.251 | 20 | 10 | 0.316 | 15.8 | 6.31 |  | 39.8 | 0.398 | 0.501 | 1 |
| NCc1ccc2c(Cl)cc(Cl)c(O)c2n1 | 20 | 1.26 | 2.51 | 2 | 6.31 | 2 | 6.31 | 2 |  | 25.1 | 0.398 | 0.2 | 39.8 |
